Drawing on the PolyMetriX glass transition set, this text covers glass transition temperature for 49 compounds.

± gives the standard deviation of the reports.

Regarding `*Oc1c(F)c(F)c(Oc2c(F)c(F)c3c(c2F)C(=O)N(c2ccc(-c4ccc(N5C(=O)c6c(F)c(*)c(F)c(F)c6C5=O)cc4C(F)(F)F)c(C(F)(F)F)c2)C3=O)c(F)c1F` (repeat unit), the glass transition temperature came out at 312.00 °C.

The compound `*c1ccc(-c2ccc(N3C(=O)c4cc5c(cc4C3=O)C(C(F)(F)F)(C(F)(F)F)c3cc4c(cc3O5)C(=O)N(*)C4=O)cc2C(F)(F)F)c(C(F)(F)F)c1` (repeat unit) gave a glass transition temperature of 420.00 °C.

Consider `*c1ccc(-c2ccc(N3C(=O)c4cc5c(cc4C3=O)C(C(F)(F)F)(C(F)(F)F)c3cc4c(cc3O5)C(=O)N(*)C4=O)cc2OC(F)(F)F)c(OC(F)(F)F)c1` (repeat unit), for which the glass transition temperature was found to be 375.00 °C.

In turn, `*c1ccc(-c2ccc(N3C(=O)c4cc5c(cc4C3=O)C(c3ccccc3)(C(F)(F)F)c3cc4c(cc3O5)C(=O)N(*)C4=O)cc2OC(F)(F)F)c(OC(F)(F)F)c1` (repeat unit) displayed a glass transition temperature of 400.00 °C.

`*Oc1ccc(Oc2ccc3c(c2)C(=O)N(c2ccc(Oc4ccc5ccccc5c4-c4c(Oc5ccc(N6C(=O)c7ccc(*)cc7C6=O)cc5C(F)(F)F)ccc5ccccc45)c(C(F)(F)F)c2)C3=O)cc1` (repeat unit) came in with a glass transition temperature of 256.00 °C.

Take `*Oc1ccc2c(c1)C(=O)N(c1cc(N3C(=O)c4ccc(*)cc4C3=O)cc(C(F)(F)F)c1)C2=O` (repeat unit): the glass transition temperature was found to be 274.00 °C.

`*c1ccc2c(c1)C(=O)N(c1ccc(-c3ccc(N4C(=O)c5ccc(C(*)(C(F)(F)F)C(F)(F)F)cc5C4=O)cc3-c3ccc(C)cc3)c(-c3ccc(C)cc3)c1)C2=O` (repeat unit) displayed a glass transition temperature of 286.00 °C.

`*C(=O)Nc1ccc2ccccc2c1-c1c(NC(=O)c2ccc3c(c2)C(=O)N(c2ccc(Cc4ccc(N5C(=O)c6ccc(*)cc6C5=O)cc4)cc2)C3=O)ccc2ccccc12` (repeat unit): the glass transition temperature worked out at 285.40 °C.

The compound `*C(=O)Oc1ccc2ccccc2c1-c1c(OC(=O)c2ccc3c(c2)C(=O)N(c2ccc(Oc4ccc(N5C(=O)c6ccc(*)cc6C5=O)cc4)cc2)C3=O)ccc2ccccc12` (repeat unit) yielded a glass transition temperature of 257.00 °C.

Turning to `*Oc1ccc2ccccc2c1-c1c(Oc2ccc3c(c2)C(=O)N(c2ccc(Oc4ccc(N5C(=O)c6ccc(*)cc6C5=O)cc4)cc2)C3=O)ccc2ccccc12` (repeat unit), the glass transition temperature came out at 274.00 °C.

For the compound `*C(=O)c1ccc2c(c1)C(=O)N(c1cccc(Oc3ccc(P(=O)(c4ccccc4)c4ccc(Oc5ccc(N6C(=O)c7ccc(*)cc7C6=O)cc5)cc4)cc3)c1)C2=O` (repeat unit), the glass transition temperature amounted to 232.00 °C.

Compound `*C(=O)c1ccc2c(c1)C(=O)N(c1cc(N3C(=O)c4ccc(*)cc4C3=O)ccc1OCC(F)(F)C(F)(F)C(F)(F)C(F)(F)C(F)(F)C(F)(F)C(F)(F)F)C2=O` (repeat unit) yielded a glass transition temperature of 223.00 °C.

In the case of `*C(=O)c1ccc2c(c1)C(=O)N(c1cc(N3C(=O)c4ccc(*)cc4C3=O)ccc1OCC(F)(F)C(F)(F)C(F)(F)C(F)(F)C(F)(F)C(F)(F)F)C2=O` (repeat unit), the glass transition temperature turned out to be 229.00 °C.

Consider `*C(=O)c1ccc2c(c1)C(=O)N(c1cc(N3C(=O)c4ccc(*)cc4C3=O)ccc1OCC(F)(F)C(F)(F)C(F)(F)F)C2=O` (repeat unit), for which the glass transition temperature was 262.00 °C.

`*Oc1ccc2c(c1)C(=O)N(c1ccc(P(=O)(c3ccccc3)c3ccc(N4C(=O)c5ccc(*)cc5C4=O)cc3)cc1)C2=O` (repeat unit) had a glass transition temperature of 311.00 °C.

Take `*c1c(C)c(C)c(N2C(=O)c3cc4c(cc3C2=O)C(c2ccccc2)(C(F)(F)F)c2cc3c(cc2O4)C(=O)N(*)C3=O)c(C)c1C` (repeat unit): the glass transition temperature was 394.00 °C.

Turning to `*C(=O)c1ccc2c(c1)C(=O)N(c1c(C)cc(CC)c(N3C(=O)c4ccc(*)cc4C3=O)c1CC)C2=O` (repeat unit), the glass transition temperature turned out to be 385.00 °C.

In turn, `*C1=C(Cl)C(=O)N(c2ccc(Cc3ccc(N4C(=O)C(Cl)=C(Oc5c(Cl)cc(C(C)(C)c6cc(Cl)c(*)c(Cl)c6)cc5Cl)C4=O)cc3)cc2)C1=O` (repeat unit) displayed a glass transition temperature of 200.00 °C.

`*c1ccc(Cc2ccc(-n3c(=O)c4ccc5c(=O)n(*)c(=O)c5c4c3=O)c(C)c2)cc1C` (repeat unit) yielded a glass transition temperature of 354.00 °C.

The compound `*Sc1cccc2c1C(=O)N(c1ccc(N3C(=O)c4cccc(*)c4C3=O)cc1)C2=O` (repeat unit) returned a glass transition temperature of 330.00 °C.

Compound `*Oc1ccc2c(c1)C(=O)N(c1ccc(Oc3c(C)cc(Oc4ccc(N5C(=O)c6ccc(*)cc6C5=O)cc4)c(C)c3C)cc1)C2=O` (repeat unit) came in with a glass transition temperature of 261.00 °C.

Regarding `*Oc1cccc(Oc2ccc(Oc3cccc4c3C(=O)N(c3ccc(Oc5ccc(N6C(=O)c7cccc(*)c7C6=O)cc5)cc3)C4=O)cc2)c1` (repeat unit), the glass transition temperature amounted to 239.00 °C.

In turn, `*Oc1ccc2c(c1)C(=O)N(c1ccc(Oc3ccc(Oc4ccc(N5C(=O)c6ccc(*)cc6C5=O)cc4)cc3C(C)(C)C)cc1)C2=O` (repeat unit) registered a glass transition temperature of 240.00 °C.

Regarding `*Oc1cccc(Sc2ccc(Oc3ccc4c(c3)C(=O)N(c3ccc(Oc5cccc(Oc6ccc(N7C(=O)c8ccc(*)cc8C7=O)cc6)c5)cc3)C4=O)cc2)c1` (repeat unit), the glass transition temperature is 219.00 °C.

The compound `*Oc1cccc(S(=O)(=O)c2ccc(Oc3cccc4c3C(=O)N(c3ccc(Oc5cccc(Oc6ccc(N7C(=O)c8cccc(*)c8C7=O)cc6)c5)cc3)C4=O)cc2)c1` (repeat unit) gave a glass transition temperature of 216.00 °C.

The compound `*Oc1cccc2c1C(=O)N(c1ccc(Oc3ccc(Oc4cccc(N5C(=O)c6cccc(*)c6C5=O)c4)cc3)cc1)C2=O` (repeat unit) yielded a glass transition temperature of 263.00 °C.

As for `*Oc1ccc(C(c2ccc(Oc3cccc4c3C(=O)N(CCCCCCCCN3C(=O)c5cccc(*)c5C3=O)C4=O)cc2)(C(F)(F)F)C(F)(F)F)cc1` (repeat unit), the glass transition temperature stood at 135.00 °C.

The source holds these as a separate data set.
`*CC(*)c1ccc(C(=O)OC)cc1` (repeat unit) [Poly(p-methoxycarbonyl styrene) ] displayed a glass transition temperature of 113 ± 5.6 °C.

`*OC(C)COC(*)=O` (repeat unit) [Poly(propylene carbonate)] registered a glass transition temperature of 35.73 ± 1.6 °C.

In turn, `*CC(*)CCC` (repeat unit) [Poly(propylethylene)] returned a glass transition temperature of -35 ± 46 °C.

The compound `*c1ccc(*)[nH]1` (repeat unit) [Poly(pyrrole)] yielded a glass transition temperature of 86.42 ± 23 °C.

`*CC(*)(C)C(=O)OC(C)CC` (repeat unit) [Poly(sec-butyl methacrylate)] came in with a glass transition temperature of 57 ± 2.6 °C.

In the case of `*CCCCOC(=O)CCCCC(=O)O*` (repeat unit) [Poly(tetramethylene adipate) ], the glass transition temperature is -68 ± 2.1 °C.

For `*CCCOC(=O)c1ccc(C(=O)O*)cc1` (repeat unit) [Poly(trimethylene terephthalate)], the glass transition temperature was 52.92 ± 1.3 °C.

The compound `*CC(*)F` (repeat unit) [Poly(vinyl fluoride)] came in with a glass transition temperature of 33.92 ± 10 °C.

Turning to `*CC(*)OC(C)C` (repeat unit) [Poly(vinyl isopropyl ether) ], the glass transition temperature is -4 ± 2.3 °C.

`*CC(*)SC` (repeat unit) [Poly(vinyl methyl sulfide) ]: the glass transition temperature was -1 ± 1.2 °C.

For `*CC(*)OCCCCCCCCCC` (repeat unit) [Poly(vinyl n-decyl ether) ], the glass transition temperature is -76 ± 8.5 °C.

`*CC(*)OCCCCC` (repeat unit) [Poly(vinyl n-pentyl ether)] displayed a glass transition temperature of -66 ± 0.6 °C.

For the compound `*CC(*)(Cl)Cl` (repeat unit) [Poly(vinylidene chloride)], the glass transition temperature is -9.83 ± 9.4 °C.

In turn, `*Oc1ccc(C(c2ccc(OC(*)=O)cc2)C(C)C)cc1` (repeat unit) [Poly[1,1-(2-methyl propane) bis(4-phenyl)carbonate]] had a glass transition temperature of 149 ± 0.6 °C.

Consider `*Oc1ccc(C(C)(CCC)c2ccc(OC(*)=O)cc2)cc1` (repeat unit) [Poly[2,2-pentane bis(4-phenyl)carbonate]], for which the glass transition temperature amounted to 137 ± 0.6 °C.

`*Oc1ccc(C(CCC)(CCC)c2ccc(OC(*)=O)cc2)cc1` (repeat unit) [Poly[4,4-heptane bis(4-phenyl)carbonate]] showed a glass transition temperature of 148 ± 0.6 °C.

As for `*CC(*)C(F)(F)C(F)(F)F` (repeat unit) [Poly[(pentafluoroethyl)ethylene] ], the glass transition temperature was 41 ± 0.6 °C.

Take `*CCCCCCCCO*` (repeat unit) [Polyoxyoctamethylene ]: the glass transition temperature is -70 ± 34 °C.

In turn, `*CC(*)c1ccccc1` (repeat unit) [atactic polystyrene] showed a glass transition temperature of 95.96 ± 28 °C.

The compound `*CC(*)(C)C(=O)OCCCCCC` (repeat unit) [poly(hexyl methacrylate)] showed a glass transition temperature of -6.6 ± 7.2 °C.

In the case of `*CC(*)(C)C(=O)OC` (repeat unit) [poly(methyl methacrylate)], the glass transition temperature is 108.92 ± 15 °C.

For `*CCCCCCCCCCCCCCC(=O)O*` (repeat unit) [poly(pentadecalactone)], the glass transition temperature is -24.62 ± 3.6 °C.
